# Results: patent US9403877B2, “Peptide agents for cancer therapy” (INTER-K PTY LIMITED, priority 2012, dated 2016)
# Entries after “also recorded” stand apart in the source; their conditions may differ. Where no end group is shown, it is not given here. The star is where a group is joined. FITC = O=C1OC2(c3ccc(O)cc3Oc3cc(O)ccc32)c2ccc(NC(=S)*)cc21
# Experiments:
# [1] = test system: HT29 cells; assay: Uptake of FITC-labelled peptide by confocal microscopy; format: cell-based, human; settings: serum-free culture, after 24 hours, compared to FITC alone
# Method: The ability of 10 Ala to cross the plasma membrane of HT29 cells was assessed by means of confocal microscopy of cells exposed to 10Ala conjugated to fluorosceine isothiocyanate (FITC) under serum-free culture conditions. The peptide used in this study comprised the sequence KRAKAKAAAAR (SEQ ID No. 25) (identified as FITC-K10(4)Ala) with an extra lysine residue at the amino terminus (to which the FITC label is attached). […] A microphotograph showing localization of the FITC-labelled peptide to the cytoplasm of cells compared to cells treated with FITC alone is shown in FIG. 9.
# [2] = test system: HT29 colon cancer cells; assay: In vitro growth inhibition MTT assay, HT29; format: cell-based, human; settings: for Inhibition of HT29 cell growth/proliferation (MTT), in words: serum-free medium, 72 hours, peptide 50 nM-100 μM, compared with RSKAKNPLYR or 10Ala
# Method: (§1) The human colon cancer cell line HT29, ovarian cancer cell line A2780, breast cancer cell lines MCF-7 and MDA468, and a prostate cancer cell line (DU145) were used for in vitro studies. The cell lines were cultured at 37° C., under air containing 5% CO2 and passaged regularly for optimal growth. Cells were maintained in DMEM medium containing 10% fetal bovine serum. All culture medium preparations were further supplemented with penicillin/streptomycin (100 μg/ml), and
# (§2) 1.2 In Vitro Growth Inhibition MTT Assay
# Cells in logarithmic growth were transferred to 96-well plates in 100 μl of serum-containing medium at a density of 4000 cells per well. […] […] Growth-inhibitory effects were evaluated by MTT (3-[4,5-dimethylthiazol-2-yl]2,5-diphenyl-tetrazolium bromide) cell growth assay and absorbance was read at 540 nm. Growth of control cells was exponential during the whole incubation period. Mean surviving fractions±SEM values (minimum of 3 separate experiments) were determined for each peptide/cisplatin concentration.
# [3] = test system: colon cancer cells; settings: PCT/AU2010/000203; cited from earlier work
# [4] = test system: ovarian (A2780) cancer cell line; assay: In vitro growth inhibition MTT assay, A2780, serum-free; format: cell-based, human; settings: 72 hours
# Method: as §1, §2
# (§3) Cells in logarithmic growth were transferred to 96-well plates in 100 μl of serum-containing medium at a density of 4000 cells per well. After 24 hours the previously added serum-containing medium was removed and 200 μl serum free medium (SFM) with or without peptide was added to each of triplicate wells. Drug exposure experiments were carried out on cell lines using varying concentrations of peptides (50 nM-100 μM) and cells were exposed to peptides for 72 hours in serum-free culture medium. Growth-inhibitory effects were evaluated by MTT (3-[4,5-dimethylthiazol-2-yl]2,5-diphenyl-tetrazolium bromide) cell growth assay and absorbance was read at 540 nm. Growth of control cells was exponential during the whole incubation period. Mean surviving fractions±SEM values (minimum of 3 separate experiments) were determined for each peptide/cisplatin concentration.
# [5] = test system: prostate (DU145) cancer cell line; assay: In vitro growth inhibition MTT assay, DU145, serum-free; format: cell-based, human; settings: 72 hours
# Method: as §1, §2, §3
# [6] = test system: breast (MCF-7) cancer cell line; assay: In vitro growth inhibition MTT assay, MCF-7, serum-free; format: cell-based, human; settings: 72 hours
# Method: as §1, §2, §3
# [7] = test system: DU145 prostate cancer cells; assay: Modified MTT assay, DU145, 5% serum, 48 hours; format: cell-based, human; settings: for Growth inhibition of DU145 prostate cancer cells: 5% serum, 48 hours, concentrations of 0.5 μM or greater
# Method: as §3
# (§4) The growth inhibitory activity of various concentrations of the 10 RVK peptide (RVKVKVVVVR) (SEQ ID No. 24) with an 8 mer polyarginine sequence coupled to its C-terminal end (i.e., RVKVKVVVVRRRRRRRRR (SEQ ID No. 26), referred to herein as 10 RVK Arg) on MDA468 breast cancer cells was assessed by a modified form of the MTT assay described in Example 1.2 in which 3000 cells per well were cultured for 48 hours in culture medium containing 5% serum. For the negative control, an 8 mer polyargine peptide (8 Arg) was used. The results shown in FIG. 10 are the average of 3 replicate wells for each dosage.
# (§5) The growth inhibitory activity of various concentrations of the 10 RVK Arg peptide on MDA468 breast cancer and DU145 prostate cancer cells was assessed by MTT assay involving incubating the cells in 5% serum containing medium for 48 hours as described in Example 2. As a comparison, inhibition of the growth of the cells by the 10 RVK peptide with a 7 mer polyarginine sequence coupled to its C-terminal end (i.e., RVKVKVVVVRRRRRRRR (SEQ ID No. 27), referred to herein as 10 RVK 7 Arg) and the 10 RVK peptide with an 8 mer polyargine sequence coupled to its N-terminal end (i.e., RRRRRRRRRVKVKVVVVR (SEQ ID No. 28), referred to herein as Arg 10 RVK) were also assessed. The results for inhibition of the breast cancer cells are shown in FIG. 11 while the results for treatment of the prostate cancer cells are shown in FIG. 12.
# [8] = test system: MDA468 breast cancer cells; assay: Modified MTT assay, MDA468, 5% serum, 48 hours; format: cell-based, human; settings: for Growth inhibition of MDA468 breast cancer cells: concentrations of 0.5 μM or greater
# Method: as §3, §4, §5
# [9] = test system: HT29 colon cancer cells; settings: in vitro in the presence of serum, Agrez et al., 2011; cited from earlier work
substance,measurement,setting,value
FITC-KRAKAKAAAAR ({FITC}-KRAKAKAAAAR) [FITC-K10(4)Ala],Internalization / localization of FITC-labelled peptide in cells,[1],cytoplasmic localization of peptide
KARARAAAAK (10Ala peptide in which the positions of one or both arginine and lysine residues have been inverted),"Inhibition of HT29 cell growth/proliferation (MTT), in words",[2],significantly reduced the ability of the peptides to inhibit cell growth
KEKLKNPLFK (10-mer peptide from B2 integrin cytoplasmic domains) [10 mer peptide derived from the β2 integrin cytoplasmic domain],Inhibition of proliferation of colon cancer cells in vitro (previously reported),[3],effective at inhibiting proliferation
RAAKAARAAK (Scrambled peptide with Alanine in the place of all non-charged residues in peptide of sequence 2.) [scrambled alanine-substituted peptide],"Inhibition of HT29 cell growth/proliferation (MTT), in words",[2],ineffective
RAKAK (shorter variant of 10Ala),"Inhibition of HT29 cell growth/proliferation (MTT), in words",[2],minimal effect
RAKAKAAAAAR (variant peptide of 10Ala having 5 alanine residues between the lysine and the C-terminal arginine),"Inhibition of HT29 cell growth/proliferation (MTT), in words",[2],significantly less effective at inhibiting growth
RAKAKAAAAR (B6 derived peptide),Inhibition of A2780 cell growth,[4],equally effective
same,Growth inhibitory effect in serum-containing medium,"[2]; serum-containing medium, data not shown",adversely affected
same,"Inhibition of HT29 cell growth/proliferation (MTT), in words",[2],ability of both peptides to inhibit cell growth was similar
same,"Inhibition of HT29 cell growth/proliferation (MTT), in words",[2]; listed as 10Ala,significantly more effective at inhibiting cell proliferation
same,Inhibition of DU145 cell growth,[5],equally effective
same,Inhibition of MCF-7 cell growth,[6],equally effective
RAKAKAAAR (short variant of 10Ala),"Inhibition of HT29 cell growth/proliferation (MTT), in words",[2],minimal effect; also recorded: significantly less effective at inhibiting growth
RAKARAAAAK (10Ala peptide wherein the position of one or both arginine and lysine residues have been inverted),"Inhibition of HT29 cell growth/proliferation (MTT), in words",[2],significantly reduced the ability of the peptides to inhibit cell growth
RARAKNPLYK (10 mer peptide from B3 integrin cytoplasmic domain) [10 mer peptide derived from the β3 integrin cytoplasmic domain],Inhibition of proliferation of colon cancer cells in vitro (previously reported),[3],effective at inhibiting proliferation
RKKR (Charged residues for growth inhibitory effect),"Inhibition of HT29 cell growth/proliferation (MTT), in words",[2],not sufficient to inhibit cancer cell proliferation in vitro to the same degree
RKRK (A scrambled version of the charged residues RKKR),"Inhibition of HT29 cell growth/proliferation (MTT), in words",[2],significantly less effective at inhibiting growth of the cells
RRRRRRRRRVKVKVVVVR (10 RVK peptide with an 8 mer polyargine sequence coupled ot its N-terminal end) [Arg 10 RVK],Growth inhibition of DU145 prostate cancer cells,[7],markedly inhibited growth
same,Growth inhibition of MDA468 breast cancer cells,"[8]; 5% serum, 48 hours",markedly inhibited growth
"RSKAKNALYR (short variant of sequence 2, scrambled)","Inhibition of HT29 cell growth/proliferation (MTT), in words",[2],not seen
RSKAKNPLAR (A short variant peptide of sequence 2),"Inhibition of HT29 cell growth/proliferation (MTT), in words",[2],not seen
RSKAKNPLYR (Non naturally occurring peptide derived from the B6 binding sequence),Growth inhibitory effect in the presence of serum (previously shown),[9],adversely affected
RSKAKR (SHORT VARIANT OF THE PEPTIDE FROM SEQUENCE 2),"Inhibition of HT29 cell growth/proliferation (MTT), in words",[2],failed to inhibit proliferation
RSRARNPLYR (10 mer peptide from B5 integrin cytoplasmic domain) [10 mer peptide derived from the β5 integrin cytoplasmic domain],Inhibition of proliferation of colon cancer cells in vitro (previously reported),[3],effective at inhibiting proliferation
RVKVKVVVVRRRRRRRR (10RVK peptide with a 7 mer polyarginine sequence coupled to its C-terminal end) [10 RVK 7 Arg],Growth inhibition of DU145 prostate cancer cells,[7],markedly inhibited growth
same,Growth inhibition of MDA468 breast cancer cells,"[8]; 5% serum, 48 hours",markedly inhibited growth
RVKVKVVVVRRRRRRRRR (8 mer polyarginine sequence couple to the C-terminal end of 10 RVK peptide) [10 RVK Arg],Growth inhibitory activity on DU145 compared to 10 RVK with penetratin coupled to its N-terminal,"[7]; 10 μM to 50 μM, results not shown",enhanced cell growth inhibitory activity
same,Growth inhibition of DU145 prostate cancer cells,[7],markedly inhibited growth
same,Growth inhibitory activity on MDA468 compared to 10 RVK with penetratin coupled to its N-terminal,"[8]; 5 μM to 10 μM, results not shown",enhanced cell growth inhibitory activity
same,Growth inhibition of MDA468 cells,"[8]; 5% serum, 48 hours, concentration 5 μM to 50 μM",totally inhibited growth
same,Growth inhibition of MDA468 breast cancer cells,"[8]; 5% serum, 48 hours",markedly inhibited growth
